Data taken from patent US8399493B2, “Pyridinone derivatives and their use as positive allosteric modulators of mGluR2-receptors” (Janssen Pharmaceuticals, Inc., priority 2004, dated 2013).

Tests used:
native rat mGluR2 = target: T1, native rat mGluR2 (Rattus norvegicus, UniProt P31421); experiment: [35S]GTPγS binding assay using cortical rat brain membranes; format: biochemical; details: FIG. 1
T1 construct: from tissue; host or cells: rat brain cortex membranes (Sprague-Dawley rats, Charles River Laboratories)
Description: The [^35S]GTPγS binding is a functional membrane-based assay used to study G-protein coupled receptor (GPCR) function. This method is using a binding assay to assess the initial step in receptor-mediated G protein activation in membranes prepared from cells expressing recombinant GPCR or using membranes from discrete area of the rat brain. In brief, the assay is measuring the activation of G proteins by catalyzing the exchange of guanosine 5′-diphosphate (GDP) by guanosine 5′-triphosphate (GTP) at the α subunit. The GTP-bounded G proteins dissociate into two subunits, Gα-GTP and Gβγ, which in turn regulate intracellular enzymes and ion channels. GTP is rapidly hydrolysed by the Gα-subunit (GTPases) and the G protein is deactivated and ready for new GTP exchange cycle (Harper (1998) Curr Protoc Pharmacol 2.6.1-10, John Wiley & Sons, Inc.). [^35S]GTPγS, a non-hydrolyzed analogue of GTP, is used for this purpose.
This method is widely used to study receptor activation of G protein in membranes prepared from rat brain tissue, including mGluR2 receptors (Schaffhauser et al 2003, Pinkerton et al, 2004). mGluR2 receptors are expressed in the rat brain cortex (Mutel et al (1998) J. Neurochem. 71:2558-64; Schaffhauser et al (1998) Mol. Pharmacol. 53:228-33) and are coupled to Gαi-protein, a preferential coupling for this method.
[^35S]GTPγS binding assay using cortical rat brain membranes preparation was used and adapted from Schaffhauser et al ((2003) Mol. Pharmacol. 4:798-810) for the detection of the positive allosteric modulator properties of the compounds of this invention on native rat mGluR2. In order to eliminate the possible interference with group III Gαi-protein coupled mGluRs (mGluR4, mGluR7, mGluR8; mGluR6 is not expressed in the cortex (Laurie et al (1997) Neuropharmacol. 36:145-52)), the potentiation of the response to a selective mGluR2 agonist, such as DCG-IV (Cartmell et al. (1998) Br. J. Pharmacol. 123(3):497-504) or LY379268 (Monn et al. (1999) J. Med. Chem 42:1027-40), by compounds described in the present invention was performed.
Cortices were dissected out from brains of 200-300 g Sprague-Dawley rats (Charles River Laboratories, L'Arbresle, France). Tissues were homogenized in 6 volumes (vol/wt) of 10% sucrose at 4° C. using a glass-teflon homogenizer. The homogenate was centrifuged at 1250 g for 10 min, and the supernatant was centrifuged at 40,000 g for 20 min (4° C.). The pellet was resuspended in 25 ml water using a Polytron disrupter (Kinematica AG, Luzern, Switzerland) and centrifuged for 10 min at 3000 g. (4° C.). The supernatant was centrifuged at 40,000 g for 20 min (4° C.). The supernatant was discarded and the pellet washed twice by resuspension in 10 volumes 5 mM HEPES-KOH, pH 7.4. The homogenate was frozen and thawed twice and centrifuged at 40,000 g for 20 min. The final pellet was resuspended in 5 mM HEPES-KOH, pH 7.4 and stored at −80° C. before its use. Protein concentration was determined by the Bradford method (Bio-Rad protein assay, Reinach, Switzerland) with bovine serum albumin as standard.
Measurement of mGluR2 positive allosteric modulators properties in rat cortical membranes was performed as follows: rat cortical membrane (1.5 μg) were incubated in 96-well microplates for 15 min at 30° C. in assay buffer (50 mM HEPES pH 7.4, 100 mM NaCl, 5 mM MgCl2, 10 μM GDP, 10 μg/ml saponin, EGTA 0.2 mM) with increasing concentrations of positive allosteric modulator (from 1 nM to 10 μM) and a minimal concentration of DCG-IV or LY379268, a selective mGluR2 agonist, that has been determined in previous experiments and that corresponds to the EC20, a concentration that gives 20% of the maximal response of the agonist, and is in accordance to published data (Pin et al. (1999) Eur. J. Pharmacol. 375:277-294). […]

Male C57BL6/j mice [1] = experiment: PCP-induced locomotor activity in mice (phencyclidine model of schizophrenia); format: in vivo; details: 200 mg/kg i.p., PCP 5 mg/kg s.c., distance traveled over 60 minutes, FIG. 2
Description: PCP-induced increases in locomotor ambulation are a widely accepted animal model of schizophrenia. This model is based on the evidence that phencyclidine induces a schizophrenia-like syndrome in humans including increased motor behaviors, disruption of cognition and impairment of working memory (Steinpreis R E (1996) Behav Br Res. 74:45-55; Abi-Saab et al. (1998) Pharmacopsychiatry, 31:104-109). Further, it has also been shown that antipsychotic drugs that are effective in the treatment of schizophrenia reduce the locomotor activating effect of PCP (Gleason & Shannon (1997) Psychopharmacology, 129:79-84). […]
(§1) The effects of compounds on PCP- or amphetamine-induced locomotor activation in mice were tested. […] Locomotor activity (ambulations) was monitored by a videotracking system (VideoTrack, Viewpoint, Champagne au Mont d'Or, France) that recorded the ambulatory movements of mice. […] On test days, test compounds (200 mg/kg i.p. (intraperitoneal)) or vehicle were administered immediately before the PCP (5 mg/kg s.c. (sub-cutaneous), amphetamine (3.0 mg/kg s.c.) or saline injection. Mice were placed into the locomotor boxes immediately after the PCP, amphetamine or saline vehicle injection and their locomotor activity, defined as the distance traveled in centimeters (cm), was measured for 60 minutes. […]

Male C57BL6/j mice [2] = experiment: Amphetamine-induced locomotor activity in mice (amphetamine model of schizophrenia); format: in vivo; details: 200 mg/kg i.p., amphetamine 3.0 mg/kg s.c., distance traveled over 60 minutes, FIG. 3
Description: Amphetamine-induced increases in locomotor ambulation are well known and are widely used as a model of the positive symptoms of schizophrenia. This model is based on evidence that amphetamine increases motor behaviors and can induce a psychotic state in humans (Yui et al. (2000) Ann NY Acad Sci 914:1-12). Further, it is well known that amphetamine-induced increases in locomotor activity are blocked by antipsychotics drugs that are effective in the treatment of schizophrenia (Arnt (1995) Eur J Pharmacol 283:55-62). […]
as §1
Statistical analyses were performed using GraphPad PRISM statistical software (GraphPad, San Diego, Calif., USA). Data were analyzed using unpaired t-tests. […]

T1 sequence (P31421 19-872): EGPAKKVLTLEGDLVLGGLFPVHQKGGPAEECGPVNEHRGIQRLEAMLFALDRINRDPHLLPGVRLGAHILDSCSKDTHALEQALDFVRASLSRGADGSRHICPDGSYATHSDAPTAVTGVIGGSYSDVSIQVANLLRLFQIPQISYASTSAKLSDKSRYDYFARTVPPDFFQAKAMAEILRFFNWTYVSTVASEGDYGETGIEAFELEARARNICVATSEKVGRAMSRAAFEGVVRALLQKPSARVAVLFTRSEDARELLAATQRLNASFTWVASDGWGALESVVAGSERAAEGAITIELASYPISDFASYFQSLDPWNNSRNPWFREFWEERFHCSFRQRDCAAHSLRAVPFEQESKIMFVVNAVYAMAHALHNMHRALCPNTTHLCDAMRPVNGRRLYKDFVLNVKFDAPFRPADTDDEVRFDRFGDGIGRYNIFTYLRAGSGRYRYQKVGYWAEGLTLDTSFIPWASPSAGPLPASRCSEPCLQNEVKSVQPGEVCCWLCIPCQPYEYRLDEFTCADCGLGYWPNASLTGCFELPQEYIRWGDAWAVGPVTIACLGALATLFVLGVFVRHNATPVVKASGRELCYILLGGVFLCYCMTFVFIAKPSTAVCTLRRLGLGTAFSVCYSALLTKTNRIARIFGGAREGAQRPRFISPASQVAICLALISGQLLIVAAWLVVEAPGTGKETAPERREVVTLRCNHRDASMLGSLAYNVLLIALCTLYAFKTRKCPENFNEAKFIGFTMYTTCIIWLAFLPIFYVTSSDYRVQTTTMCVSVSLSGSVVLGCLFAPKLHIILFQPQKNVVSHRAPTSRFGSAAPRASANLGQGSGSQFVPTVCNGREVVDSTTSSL

COc1ccc(-c2ccc(=O)n(Cc3ccc(Cl)cc3F)c2)cc1 [4-16]
ability to increase the [GTPγ35S] binding induced by DCG-IV (native rat mGluR2; 10 μM compound with 50 nM DCG-IV, compared to agonist alone): significantly potentiated
agonistic activity in the absence of DCG-IV (native rat mGluR2; 10 μM compound without 50 nM DCG-IV, compared to buffer value): no statistically significant agonistic activity
effect on the increase in locomotor activity induced by PCP (Male C57BL6/j mice [1]): significantly attenuated
effect on the increase in locomotor activity induced by amphetamine (Male C57BL6/j mice [2]): significantly attenuated
melting point: 88 °C
